Laboratory results published in US20200399238A1, “THERAPEUTIC AURONES” (MIDDLE TENNESSEE STATE UNIVERSITY, priority 2016, published 2020).
Where two headings read alike, the source gives them in different places.

Key:
[1] = tested on: rat skeletal muscle cell line, L6; assay: cells; format: cell-based
Description: Cells were maintained in high glucose DMEM obtained from HyClone Laboratories (Logan, Utah) and supplemented with FCS and P/S at the same concentrations used for parasite culture. Cells were passaged every 3-4 days and maintained in a 37° C. humidified incubator in an atmosphere of 5% CO2. For assays. cells were detached, counted using a hemocytometer, and adjusted using fresh media to deliver 5×10^3 cells per well (90 μL) in black walled, flat clear bottom 96-well microtiter plates. After 3 h incubation for attachment, compounds diluted in culture medium were added (10 μL) to triplicate wells. Positive controls (cells treated with podophyllotoxin (Sigma, St. Louis, Mo.)), negative controls (untreated cells), solvent controls (DMSO) and media blanks were included on each plate. Following incubation for 71.5 h, 11 μL of PrestoBlue was added into each well.

[2] = tested on: Trypanosoma cruzi Tulahuen cells expressing beta-galactosidase; assay: T. cruzi intracellular assay (beta-galactosidase, L6 host cells); conditions: for Selectivity L6/TC-I: Table 3A
[3] = tested on: Trypanosoma brucei brucei 427 cells; assay: T. brucei culture and assay (PrestoBlue); format: cell-based
[4] = target: Leishmania amazonensis promastigotes expressing beta-lactamase; assay: microbe, parasite or virus in culture; format: cell-based
Description: Leishmania amazonensis promastigotes expressing beta-lactamase (Buckner et al., Am. J. Trop. Med. Hyg. 72 (2005) 600-605. doi:72/5/600 [pii]) were cultured in RPMI supplemented with 10% fetal calf serum and 1% pen-strep-glut solution (Sigma) at 27° C. Stationary phase promastigotes were adjusted in fresh media, treated with compounds, and incubated at 37° C. At 24 hours, 100 uL of cultures was added to 50 uL of the CellTiter Glo® solution. Luminescence readings were taken with a spectrophotometer and used to calculate inhibition.

[5] = Table 2, L6 mammalian cells, read-out: IC50 Toxicity (L6)
[6] = Table 2, mean of 2(+) independent trials, read-out: IC50 T. brucei
[7] = Table 2, L6 IC50 / L. amazonensis IC50
[8] = Rattus norvegicus, Table 1, read-out: IC50 Toxicity (L6)
[9] = Trypanosoma cruzi, TULAHUEN, read-out: IC50 T. cruzi, Table 1, intracellular assay, mean of 2(+) trials (^c one trial)
[10] = Trypanosoma cruzi, TULAHUEN, read-out: IC50 T. cruzi, Table 2, intracellular assay, mean of 2(+) independent trials
[11] = Trypanosoma brucei, Table 1, mean of 2(+) independent trials, read-out: IC50 T. brucei
[12] = Leishmania amazonensis, read-out: IC50 L. amaz.
[13] = Rattus norvegicus, Table 3B, weighted means of two or more independent trials, read-out: IC50 L6
[14] = Trypanosoma cruzi, TULAHUEN, read-out: IC50 TC-I, Table 3B, weighted means of two or more independent trials
[15] = Trypanosoma cruzi, TULAHUEN, read-out: T. cruzi IC50 dose
[16] = Trypanosoma brucei, read-out: IC50 TB
[17] = Trypanosoma brucei, read-out: T. brucei IC50 dose
[18] = Table 1, intracellular T. cruzi IC50
[19] = Table 2, L6 IC50 / T. cruzi IC50 (intracellular assay)
[20] = Table 2, L6 IC50 / T. brucei IC50
[21] = Rattus norvegicus, Table 3A, weighted means of two or more independent trials, read-out: IC50 L6
[22] = estimated from highest L6 dose tested where no L6 IC50
[23] = Trypanosoma cruzi, TULAHUEN, read-out: IC50 TC-I, Table 3A, weighted means of two or more independent trials

| Compound | IC50 [1, 8] | IC50 [2, 9] | IC50 [2, 10] | IC50 [3, 11] | IC50 [4, 12] | also measured |
| --- | --- | --- | --- | --- | --- | --- |
| O=C1/C(=C/[c-]2cccc2)Oc2ccccc21.[Fe+2].c1cc[cH-]c1 [Aurone 3001] |  |  |  |  |  | IC50 ([1]; Table 1, read-out: IC50 Toxicity (L6)): > 100 µM; IC50 [1, 5]: > 100 µM; IC50 ([1]; Table 3C, weighted means of two or more independent trials, read-out: IC50 L6): > 100 µM; IC50 ([2]; read-out: IC50 T. cruzi, Table 1, intracellular assay, mean of 2(+) trials (^c one trial)): > 50 µM; IC50 ([2]; read-out: IC50 T. cruzi, Table 2, intracellular assay, mean of 2(+) independent trials): > 50 µM; IC50 ([2]; read-out: IC50 TC-I, Table 3C, intracellular T. cruzi, weighted means of two or more independent trials): > 50 µM; IC50 ([3]; Table 1, mean of 2(+) independent trials, read-out: IC50 T. brucei): > 50 µM; IC50 [3, 6]: > 50 µM; IC50 ([3]; Table 3C, weighted means of two or more independent trials, read-out: IC50 TB): > 50 µM; IC50 ([4]; Table 1, mean of 2(+) trials, ^c value from one trial, read-out: IC50 L. amaz.): < 1 µM; Selectivity L6/La [4, 7]: >100; IC50 ([4]; Table 2, mean of 2(+) independent trials, read-out: IC50 L. amaz.): < 1 µM |
| COc1ccc(/C=C2\Oc3ccccc3C2=O)cc1OC [Aurone 2011] | 51.9 µM | 21.9 µM | 21.9 µM | 22.9 µM | 1.01 µM |  |
| O=C1/C(=C/c2c[nH]c3ccccc23)Oc2ccccc21 [Aurone 9062, (Z)-2-((1H-indol-3-yl)methylene)benzofuran-3(2H)-one] | 64.7 µM | 8.53 µM | 8.53 µM | 24.8 µM | 1.66 µM | IC50 [1, 13]: 64.7 µM; IC50 [2, 14]: 8.53 µM; IC50 [2, 15]: < 10 µM |
| CC(=O)N1/C(=C\c2ccccc2O)C(=O)c2ccccc21 [AA3A] | > 200 µM | > 50 µM | > 50 µM | > 50 µM | < 1 µM |  |
| Cc1ccc(/C=C2\Oc3ccccc3C2=O)o1 [Aurone 9251] | 85.5 µM | 3.57 µM |  | 35.3 µM | 2.36 µM | IC50 [1, 13]: 85.5 µM; IC50 [2, 14]: 3.57 µM |
| COc1cc(/C=C2\Oc3ccccc3C2=O)cc(OC)c1OC [Aurone 2002] | > 100 µM | > 50 µM |  | > 50 µM | 12.6 µM |  |
| O=C1/C(=C/c2ccncc2)Oc2ccccc21 [Aurone 2008] | 81.1 µM | 16.4 µM |  | > 50 µM | 26.3 µM | IC50 [1, 13]: 81.1 µM; IC50 [2, 14]: 16.4 µM |
| O=C1/C(=C/c2ccc[nH]2)Oc2cc(O)ccc21 [Aurone 2906, (Z)-2-((1H-pyrrol-2-yl)methylene)-6-hydroxybenzofuran-3(2H)-one] | > 100 µM | > 50 µM |  | 34.6 µM | 19.9 µM |  |
| N#Cc1ccc(/C=C2\Oc3ccccc3C2=O)cc1 [Aurone 2014] | 239 µM | 23.5 µM | 23.5 µM | 8.12 µM | 10.7 µM |  |
| CC(C)c1ccc(/C=C2\Oc3ccccc3C2=O)cc1 [Aurone 8002, (Z)-2-(4-isopropylbenzylidene)benzofuran-3(2H)-one] | 89 µM | 16.6 µM | 16.6 µM | 43.4 µM | 2.88 µM | IC50 ([4]; Leishmania amazonensis, read-out: IC50 L. amaz. (footnote c: value obtained from one trial)): 2.88 µM |
| O=C1/C(=C/c2cccs2)Nc2ccccc21 [AA9] | > 200 µM | > 50 µM | > 50 µM | > 50 µM | < 1 µM |  |
| O=C1/C(=C/c2cccc([N+](=O)[O-])c2)Oc2ccccc21 [Aurone 2015] | 226 µM | 22.6 µM | 22.6 µM | 29.2 µM | 1.71 µM |  |
| O=C1/C(=C/c2ccco2)Oc2ccccc21 [Aurone 2023] | > 100 µM | 6.97 µM | 6.97 µM | > 50 µM | < 1 µM | IC50 [1, 13]: > 100 µM; IC50 [2, 14]: 6.97 µM; IC50 [2, 15]: < 10 µM; IC50 [3, 16]: > 50 µM; IC50 [3, 17]: > 50 µM |
| O=C1/C(=C/c2ccccc2)Nc2ccccc21 [AA8] | > 100 µM | 16.8 µM | 16.8 µM | 11.7 µM | < 1 µM |  |
| O=C1/C(=C/c2cnc[nH]2)Oc2ccccc21 [Aurone 6621, (Z)-2-((1H-imidazol-5-yl)methylene)benzofuran-3(2H)-one] | > 100 µM | 18.3 µM | 18.3 µM | 1.56 µM | > 50 µM | IC50 [1, 13]: > 100 µM; IC50 [1, 5]: > 100 µM; Selectivity L6/Tc [2, 18]: >5.45; Selectivity L6/Tc [2, 19]: >5.45; Selectivity L6/Tc-I ([2]; Table 3B, estimated from highest L6 dose tested where no L6 IC50): >5.45; IC50 [2, 14]: 18.3 µM; Selectivity L6/Tb ([3]; Table 1): >64.10; Selectivity L6/Tb [3, 20]: >64.10; IC50 [3, 16]: > 50 µM; IC50 ([4]; read-out: IC50 L. amaz., Table 2, mean of 2(+) independent trials): > 50 µM |
| O=C1/C(=C/c2ccc(Br)cc2)Oc2cc(O)ccc21 [Aurone 2905, (Z)-2-(4-bromobenzylidene)-6-hydroxybenzofuran-3(2H)-one] | > 100 µM | > 50 µM |  | > 50 µM | 39 µM |  |
| O=C1/C(=C/c2ncc[nH]2)Oc2ccccc21 [Aurone 2026, (Z)-2-((1H-imidazol-2-yl)methylene)benzofuran-3(2H)-one] | > 100 µM | 20.9 µM | 20.9 µM | 16.1 µM | < 1 µM | IC50 [1, 13]: > 100 µM; IC50 [2, 14]: 20.9 µM; selectivity for T. brucei (L6/Tb) [3]: > 6.22; IC50 [3, 17]: 16.1 µM |
| O=C1/C(=C/c2ccccc2Cl)Nc2ccccc21 [AA11] | > 200 µM | > 50 µM |  | > 50 µM | 1.86 µM | IC50 ([2]; Trypanosoma cruzi, TULAHUEN, read-out: IC50 T. cruzi (footnote c: value obtained from one trial), Table 2, one trial): > 50 µM |
| O=C1/C(=C/c2ccc(-c3ccccc3)cc2)Oc2ccccc21 [Aurone 2018] | 298 µM | 34.4 µM | 34.4 µM | > 50 µM | 7.22 µM |  |
| COc1ccc(/C=C2\Oc3ccccc3C2=O)cc1 [Aurone 6601, (Z)-2-(4-methoxybenzylidene)benzofuran-3(2H)-one] | > 100 µM | 10.8 µM | 10.8 µM | 40.3 µM | 3.3 µM | IC50 [1, 21]: > 100 µM; IC50 [1, 5]: > 100 µM; Selectivity L6/Tc [2, 18]: >9.28; Selectivity L6/Tc [2, 19]: >9.28; Selectivity L6/TC-I [2, 22]: >9.28; IC50 [2, 23]: 10.8 µM; Selectivity L6/Tb ([3]; Table 1): >2.48; Selectivity L6/Tb [3, 20]: >2.48; Selectivity L6/Tb ([3]; Table 3A, estimated from highest L6 dose tested where no L6 IC50): >2.48; Selectivity L6/La ([4]; Table 1): >30.30; Selectivity L6/La [4, 7]: >30.30 |
| N#Cc1ccccc1/C=C1\Oc2ccccc2C1=O [Aurone 3007, (Z)-2-((3-oxobenzofuran-2(3H)-ylidene)methyl)benzonitrile] | > 100 µM | 46.6 µM |  | > 50 µM | 17.6 µM | IC50 [1, 21]: > 100 µM; Selectivity L6/Tc [2, 18]: >2.14; Selectivity L6/TC-I [2, 22]: >2.14; IC50 [2, 23]: 46.6 µM; Selectivity L6/La ([4]; Table 1): >5.69 |
| CN(C)c1ccc(/C=C2\Oc3ccccc3C2=O)cc1 [Aurone 9087, (Z)-2-(4-(dimethylamino)benzylidene)benzofuran-3(2H)-one] | 144 µM | 5.38 µM | 5.38 µM | 39 µM | 1.65 µM | selectivity for T. cruzi (L6/Tc) [2]: 26.83; IC50 [2, 15]: 5.38 µM |
| COc1cc(OC)c2c(c1)O/C(=C\c1cccc([N+](=O)[O-])c1)C2=O [Aurone 7001] | > 100 µM | > 50 µM |  | > 50 µM | 22 µM |  |
| O=C1/C(=C/c2ccc(Br)cc2)Oc2ccccc21 [Aurone 2009] | > 100 µM | 11.4 µM |  | 41.7 µM | 10.3 µM |  |
| Cc1ccc(/C=C2\Oc3ccccc3C2=O)cc1 [Aurone 9065, (Z)-2-(4-methylbenzylidene)benzofuran-3(2H)-one] | > 100 µM | 8.63 µM | 8.63 µM | > 50 µM | 1.37 µM | IC50 [1, 21]: > 100 µM; IC50 [1, 5]: > 100 µM; Selectivity L6/Tc [2, 18]: >11.59; Selectivity L6/Tc [2, 19]: >11.59; Selectivity L6/TC-I [2, 22]: >11.59; IC50 [2, 23]: 8.63 µM; IC50 [3, 6]: > 50 µM; Selectivity L6/La ([4]; Table 1): >72.99; Selectivity L6/La [4, 7]: >72.99 |
